Reference: the NIST ThermoML archive (doi:10.1021/acs.jced.9b00046)

Assay: mn = molality of the nth substance listed, in mol/kg
Settings: 99.6 kPa, Liquid; for viscosity: Capillary tube (Ostwald / Ubbelohde) method; for mass density: Vibrating tube method

CNC(C)=O [N-methylacetamide] + [Cl-].[Cl-].[Mg+2]
Settings | mass density, 308.15 K [kg/m3] | mass density, 313.15 K [kg/m3] | mass density, 318.15 K [kg/m3] | mass density, 323.15 K [kg/m3] | mass density, 328.15 K [kg/m3] | viscosity, 308.15 K [mPa·s] | viscosity, 313.15 K [mPa·s] | viscosity, 318.15 K [mPa·s] | viscosity, 323.15 K [mPa·s] | viscosity, 328.15 K [mPa·s]
m2 = 0 | 945.71 | 941.53 | 937.33 | 933.16 | 928.93 | 3.488 | 3.073 | 2.723 | 2.438 | 2.194
m2 = 0.00111 | 945.76 | 941.57 | 937.37 | 933.2 | 928.98 | 3.491 | 3.077 | 2.725 | 2.44 | 2.196
m2 = 0.004 | 945.9 | 941.69 | 937.51 | 933.33 | 929.12 | 3.502 | 3.087 | 2.735 | 2.448 | 2.203
m2 = 0.00479 | 945.94 | 941.73 | 937.54 | 933.37 | 929.16 | 3.505 | 3.09 | 2.737 | 2.451 | 2.204
m2 = 0.00663 | 946.03 | 941.81 | 937.63 | 933.45 | 929.24 | 3.512 | 3.097 | 2.743 | 2.455 | 2.208
m2 = 0.00734 | 946.06 | 941.85 | 937.66 | 933.48 | 929.29 | 3.514 | 3.099 | 2.747 | 2.457 | 2.211
m2 = 0.00868 | 946.13 | 941.92 | 937.73 | 933.54 | 929.35 | 3.52 | 3.103 | 2.75 | 2.462 | 2.214
m2 = 0.01179 | 946.27 | 942.07 | 937.87 | 933.7 | 929.49 | 3.531 | 3.114 | 2.76 | 2.471 | 2.221
m2 = 0.01529 | 946.45 | 942.24 | 938.04 | 933.87 | 929.68 | 3.544 | 3.127 | 2.771 | 2.48 | 2.23
m2 = 0.02124 | 946.72 | 942.53 | 938.33 | 934.15 | 929.95 | 3.566 | 3.147 | 2.792 | 2.495 | 2.244
m2 = 0.02416 | 946.86 | 942.67 | 938.47 | 934.29 | 930.09 | 3.577 | 3.156 | 2.801 | 2.505 | 2.251
m2 = 0.05144 | 948.15 | 943.94 | 939.77 | 935.6 | 931.4 | 3.681 | 3.251 | 2.89 | 2.579 | 2.317
m2 = 0.0831 | 949.6 | 945.45 | 941.26 | 937.11 | 932.91 | 3.798 | 3.361 | 2.994 | 2.67 | 2.391
